Tests used:
F508del‐CFTR [1] = target: T1, F508del‐CFTR (Homo sapiens, UniProt P13569, DEL508-508); test: Thermal stability (deactivation) of F508del‐CFTR in excised inside-out membrane patches at 37°C; format: biochemical; set-up: expressed in transfected cells; BHK cells from MD Amaral
Protocol: To investigate the effects of CFTR potentiators on the plasma membrane stability of F508del‐CFTR, we monitored its thermal stability in excised inside‐out membrane patches at 37°C (Wang et al., [2014]). Membrane patches were excised and F508del‐CFTR Cl^− channels activated at 27°C. Once channels were fully activated and potentiated, the temperature of the intracellular solution was increased to 37°C, which took 2–3 min. To quantify data, we calculated open probability (Po) and normalised Po values in 30‐s intervals over a 9‐min period (Wang et al., [2014]).

[2] = target: T2, native CFTR, genotype F508del/G551D (Homo sapiens, UniProt P13569, G551D); test: Ussing chamber CFTR-mediated short-circuit current (Isc) in F508del/G551D human bronchial epithelial cells; format: cell-based; settings: for EC50: F508del/G551D epithelia of hBE cells, Isc, 35°C, read-out: EC50 (μM) (95% CI); for Emax: HBE, read-out: Maximal effect (%) (95% CI)
T2 construct: For functional studies of native CFTR, we used primary cultures of human bronchial epithelial cells; host or cells: primary human bronchial epithelial cells, F508del/G551D, air-liquid interface cultures, studied at 35°C
T2 sequence (P13569 whole entry F508del/G551D): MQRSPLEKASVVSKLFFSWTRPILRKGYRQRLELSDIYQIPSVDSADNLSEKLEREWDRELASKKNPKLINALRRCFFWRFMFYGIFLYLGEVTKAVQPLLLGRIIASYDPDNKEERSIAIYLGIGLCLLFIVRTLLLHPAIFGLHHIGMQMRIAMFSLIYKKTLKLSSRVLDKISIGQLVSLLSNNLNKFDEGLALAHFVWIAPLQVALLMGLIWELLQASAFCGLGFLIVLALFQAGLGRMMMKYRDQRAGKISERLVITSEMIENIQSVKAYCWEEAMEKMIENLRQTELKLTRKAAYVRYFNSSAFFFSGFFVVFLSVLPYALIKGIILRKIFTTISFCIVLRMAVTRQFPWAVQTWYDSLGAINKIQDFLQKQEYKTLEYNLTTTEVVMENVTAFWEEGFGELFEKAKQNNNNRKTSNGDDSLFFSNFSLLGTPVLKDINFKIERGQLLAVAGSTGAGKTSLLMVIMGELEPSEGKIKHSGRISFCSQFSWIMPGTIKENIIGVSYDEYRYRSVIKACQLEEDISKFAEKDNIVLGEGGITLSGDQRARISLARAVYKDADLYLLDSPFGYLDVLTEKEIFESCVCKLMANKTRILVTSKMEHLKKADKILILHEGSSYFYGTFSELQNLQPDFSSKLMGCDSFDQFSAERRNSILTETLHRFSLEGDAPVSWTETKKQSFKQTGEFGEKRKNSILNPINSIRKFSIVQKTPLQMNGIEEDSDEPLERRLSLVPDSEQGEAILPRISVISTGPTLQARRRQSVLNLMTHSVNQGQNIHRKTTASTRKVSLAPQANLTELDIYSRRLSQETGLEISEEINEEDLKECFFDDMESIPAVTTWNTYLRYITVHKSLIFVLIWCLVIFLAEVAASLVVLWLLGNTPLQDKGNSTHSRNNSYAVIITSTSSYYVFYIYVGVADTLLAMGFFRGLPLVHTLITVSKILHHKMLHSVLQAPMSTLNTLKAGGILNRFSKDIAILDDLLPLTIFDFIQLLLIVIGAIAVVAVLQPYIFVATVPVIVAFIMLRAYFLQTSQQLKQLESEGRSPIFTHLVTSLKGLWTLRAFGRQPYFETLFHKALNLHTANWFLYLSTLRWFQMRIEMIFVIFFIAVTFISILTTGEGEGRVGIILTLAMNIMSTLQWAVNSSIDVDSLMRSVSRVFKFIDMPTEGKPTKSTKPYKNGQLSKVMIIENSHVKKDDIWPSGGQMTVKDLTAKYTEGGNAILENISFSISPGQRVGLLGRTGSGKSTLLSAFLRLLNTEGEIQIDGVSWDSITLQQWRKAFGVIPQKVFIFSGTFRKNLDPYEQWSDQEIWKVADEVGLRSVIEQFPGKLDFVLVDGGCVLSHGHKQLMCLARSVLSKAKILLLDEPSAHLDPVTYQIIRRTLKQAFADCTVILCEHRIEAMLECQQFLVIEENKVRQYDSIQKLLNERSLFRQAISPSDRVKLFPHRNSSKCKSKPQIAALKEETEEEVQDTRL
Text: For functional studies of native CFTR, we used primary cultures of human bronchial epithelial cells of genotypes F508del/F508del and F508del/G551D. Passage 1 (P1) human bronchial epithelial cells from SH Randell (University of North Carolina [UNC] Cystic Fibrosis Center Tissue Procurement and Cell Culture Core) were differentiated at an air–liquid interface as described by Neuberger et al., ([2011]) with some modifications. The research conducted on human cells at UNC has been verified as compliant with Pfizer policies, including institutional review board or institutional ethics committee approval. Cells were thawed and expanded in BEGM™ Bronchial Epithelial Cell Growth Medium (cat. no. CC‐3170, Lonza, USA) supplemented with retinoic acid (10 nM) and banked at P2. For functional assays, P2 cells were expanded to P4, and 5 × 10^5 P4 human bronchial epithelial cells were seeded in growth medium on Snapwell filter inserts (cat. no. 3801, Corning, NY, USA). Cells were switched to differentiation medium the following day and cultured submerged for 3 days before the medium was removed from the apical membrane to establish an air–liquid interface. Thereafter, the basolateral medium was changed every 2–3 days and mucus washed from the apical membrane every 2–3 weeks and the day prior to use starting 21 days after initiating air–liquid interface culture.
After >30 days of air–liquid interface culture on Snapwell filter inserts, human bronchial epithelial cells formed well differentiated, electrically tight epithelia (Rt > 200 Ω cm^2). Prior to study, F508del/F508del and F508del/G551D human bronchial epithelial cell cultures were incubated at 37°C and 5% CO2.
Epithelia were mounted in Ussing chambers and data acquired and analysed as described above for Ussing chamber studies of FRT cells heterologously expressing CFTR with the following exceptions. Both the apical and basolateral membranes were bathed in solutions containing (mM): 137 NaCl, 4 KCl, 1.8 CaCl2, 1 MgCl2, 10 Na HEPES, and 10 glucose (pH 7.4 with NaOH). Epithelia of F508del/G551D human bronchial epithelial cells were studied at 35°C, whereas those of F508del/F508del human bronchial epithelial cells were assayed at 27°C to maintain the apical membrane expression of F508del‐CFTR. After cancelling voltage offsets, transepithelial voltage was clamped at 0 mV and short‐circuit current (Isc) recorded continuously. The protocol to record CFTR‐mediated Isc was the same as for ICl ^apical measurements except that amiloride (30 μM, apical solution) was added to inhibit the epithelial Na^+ channel before forskolin (10 μM, apical and basolateral solutions) addition.

F508del‐CFTR [3] = target: T1, F508del‐CFTR; test: F508del‐CFTR plasma membrane stability in FRT epithelia (Ussing chamber Isc after cycloheximide); format: cell-based; set-up: expressed in transfected cells; BHK cells from MD Amaral; settings: for acute potentiation of forskolin-stimulated CFTR-mediated Isc: DMSO-treated low temperature-rescued F508del‐CFTR FRT epithelia, t = 0 h, forskolin 10 μM, ivacaftor 1 μM, then CP‐628006 10 μM
Protocol: To evaluate the effects of CP‐628006 on the plasma membrane stability of F508del‐CFTR, we used a modification of the method described by Meng et al. ([2017]). After 48‐h incubation at 27°C to rescue the plasma membrane expression of F508del‐CFTR, FRT epithelia were treated with cycloheximide (50 μg·ml^−1) and DMSO or test small molecules, 15 min prior to t = 0 h. At t = 0, 2, 4, and 6 h after these treatments, F508del‐CFTR expressing FRT epithelia were mounted in Ussing chambers (Warner Instrument Corp., Dual Channel Chamber; Harvard Apparatus Ltd., Edenbridge, UK) and Isc responses recorded.
CFTR‐mediated Isc was recorded using a large Cl^− concentration gradient without permeabilizing the basolateral membrane. The solution bathing the basolateral membrane contained (mM): 140 NaCl, 5 KCl, 0.36 K2HPO4, 0.44 KH2PO4, 1.3 CaCl2, 0.5 MgCl2, 10 HEPES, and 4.2 NaHCO3, adjusted to pH 7.2 with Tris ([Cl^−], 149 mM). The solution bathing the apical membrane was identical to that of the basolateral solution with the exception that (mM): 133.3 Na gluconate + 2.5 NaCl and 5 K gluconate replaced 140 NaCl and 5 KCl, respectively, ([Cl^−], 14.8 mM). To compensate for the calcium buffering capacity of gluconate, we used 5.7‐mM Ca^2+ in the apical solution. All solutions were maintained at 37°C and bubbled continuously with 5% CO2.
After cancelling voltage offsets, we clamped transepithelial voltage (referenced to the basolateral solution) at 0 mV and recorded Isc continuously using an epithelial voltage‐clamp amplifier (Warner Instrument Corp., model EC‐825; Harvard Apparatus Ltd.), digitising data as described previously (Li et al., [2004]). The resistance of the filter and solutions, in the absence of cells, was subtracted from all measurements.

T1 sequence (P13569 with tags, fused parts or gaps DEL508-508): as the sequence (P13569 whole entry F508del/G551D) above, with D550G counted along it

Row | Compound | increase of time to normalised Po of 50% relative to low temperature-rescued (F508del‐CFTR [1]; compound 10 μM) | delay of F508del‐CFTR deactivation (time to reach normalised Po of 50%) (F508del‐CFTR [1]; compound 10 μM, ATP 1 mM, PKA 75 nM, versus low temperature-rescued control) | EC50 [2] | Emax [2] | acute potentiation of forskolin-stimulated CFTR-mediated Isc (F508del‐CFTR [3]) | decline of CFTR-mediated Isc over 6 h (F508del‐CFTR [3]; low temperature-rescued F508del‐CFTR FRT epithelia treated with cycloheximide 50 μg·ml−1 and compound 10 μM, 37°C) | acceleration of F508del‐CFTR deactivation (time to reach normalised Po of 50%) (F508del‐CFTR [1]; compound 1 μM, ATP 1 mM, PKA 75 nM, versus low temperature-rescued control)
1 | Cc1ncccc1CNC(=O)c1ccc2c(c1)CC[C@H]1C[C@](O)(CCC(F)(F)F)CC[C@]21Cc1ccccc1 (racemic) [CP‐628006, rac‐(4bR,7R,8aS)‐4b‐benzyl‐7‐hydroxy‐N‐((2‐methylpyridin‐3‐yl)methyl)‐7‐(3,3,3‐trifluoropropyl)‐4b,5,6,7,8,8a,9,10‐octahydrophenanthrene‐2‐carboxamide] | approximately 67% | ~ 90 s | 0.14 µM | 18% | had little additional effect | slower | –
2 | CC(C)(C)c1cc(C(C)(C)C)c(NC(=O)c2c[nH]c3ccccc3c2=O)cc1O [ivacaftor, reference compound] | – | – | 0.005 µM | 103% | potentiated two‐fold | – | ~ 30 s
